Measured values reported in patent publication US20120010135A1, “SPIRO DERIVATIVES FOR THE MODULATION OF STEAROYL-COA DESATURASE” (XENON PHARMACEUTICALS INC., priority 2009, published 2012).
Where a name gives a salt, the structure may show the parent alone.

What was measured:
[1] = biological target: T1, stearoyl-CoA desaturase (SCD1) (Mus musculus, UniProt P13516); assay: SCD microsomal assay using mouse liver microsomes (release of 3H2O from [9,10-3H]stearoyl-CoA); type: biochemical; conditions: 15 min incubation, 25° C.
T1 construct: Male ICR outbread mice, on a high-carbohydrate, low fat diet; from tissue; host or cells: liver microsomes of male ICR mice on a high-carbohydrate, low fat diet
T1 sequence (P13516 1-355): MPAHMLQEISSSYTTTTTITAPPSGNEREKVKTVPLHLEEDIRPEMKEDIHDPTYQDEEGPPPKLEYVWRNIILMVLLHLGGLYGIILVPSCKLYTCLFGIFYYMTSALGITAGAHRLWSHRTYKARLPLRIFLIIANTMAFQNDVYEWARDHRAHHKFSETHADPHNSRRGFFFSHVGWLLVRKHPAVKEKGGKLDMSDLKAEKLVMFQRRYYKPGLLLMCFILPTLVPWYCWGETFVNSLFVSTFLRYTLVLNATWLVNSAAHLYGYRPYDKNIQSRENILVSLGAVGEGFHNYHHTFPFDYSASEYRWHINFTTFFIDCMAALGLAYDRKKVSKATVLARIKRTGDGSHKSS
From the text: The identification of compounds of the invention as SCD inhibitors was readily accomplished using the SCD enzyme and microsomal assay procedure described in Shanklin J. and Summerville C., Proc. Natl. Acad. Sci. USA (1991), Vol. 88, pp. 2510-2514.
Measuring Stearoyl-CoA Desaturase Inhibition Activity of a Test Compound Using Mouse Liver Microsomes
The identification of compounds of the invention as SCD inhibitors was readily accomplished using the SCD microsomal assay procedure described in Shanklin J. and Summerville C., Proc. Natl. Acad. Sci. USA (1991), Vol. 88, pp. 2510-2514.
Male ICR outbread mice, on a high-carbohydrate, low fat diet, under light halothane (15% in mineral oil) anesthesia are sacrificed by exsanguination during periods of high enzyme activity. Livers are immediately rinsed with cold 0.9% NaCl solution, weighed and minced with scissors. All procedures are performed at 4′C unless specified otherwise. Livers are homogenized in a solution (1/3 w/v) containing 025 M sucrose, 62 mM potassium phosphate buffer (pH 7.0), 0.15 M KCL 15 mM N-acetyleysteine, 5 mM MgCl2, and 0.1 mM EDTA using 4 strokes of a Potter-Elvehjem tissue homogenizer. The homogenate is centrifuged at 10,400×g for 20 min to eliminate mitochondria and cellular debris. The supernatant is filtered through a 3-layer cheesecloth and centrifuged at 105,000×g for 60 min. The microsomal pellet is gently resuspended in the same homogenization solution with a small glass/teflon homogenizer and stored at −70° C. The absence of mitochondrial contamination is enzymatically assessed. The protein concentration is measured using bovine serum albumin as the standard.
Desaturase activity is measured as the release of ^3H2O from [9,10-^3H]stearoyl-CoA. Reactions per assay point conditions are as follows: 2 μL 1.5 mM stearoyl-CoA, 0.25 μL 1 mCi/mL ^3H-stearoyl CoA, 10 μL 20 mM NADH, 36.75 μL 0.1 M PK buffer (K2HPO4/NaH2PO4, pH 7.2). The test compound or control solution is added in a 1 μL volume. Reactions are started by adding 50 μL of microsomes (1.25 mg/mL). The plates are mixed and after 15 min incubation on a heating block (25° C.), the reactions are stopped by the addition of 10 μL 60% PCA. An aliquot of 100 μL is then transferred to a fitter plate pretreated with charcoal and the plate centrifuged at 4000 rpm for 1 minute. The flow through containing the ^3H2O released by the SCD1 desaturation reaction is added to scintillation fluid and the radioactivity measured in a Packard TopCount. The data is analysed to identify the IC50 for test compounds and reference compounds.
The activity was defined in terms of % SCD enzyme activity remaining at the desired concentration of the test compound or as the IC50 concentration. The IC50 (affinity) of the example compounds toward the stearoyl-CoA desaturase is comprised between around […] and 0.0001 μM or between around […] 0.0001 μM or between around 1 μM and 0.0001 μM.

Row | IC50 [1] [nM] | melting point | SMILES
1 | 524 | – | CNC(=O)c1ccnc(NC(=O)N2CCC3(CC2)CC(=O)c2ccc(F)cc2O3)c1 [Example 1, 7-fluoro-N-(4-(methylcarbamoyl)pyridin-2-yl)-4-oxospiro[chroman-2,4′-piperidine]-1′-carboxamide hydrochloride]
2 | 17 | 177 to 179 °C | CNC(=O)c1ccnc(NC(=O)N2CCC3(CCc4ccc(F)cc4O3)CC2)c1 [Example 1.1, 7-fluoro-N-(4-(methylcarbamoyl)pyridin-2-yl)spiro[chroman-2,4′-piperidine]-1′-carboxamide]
3 | 3 | – | CNC(=O)c1ccnc(NC(=O)N2CCC3(CCc4cccc(Cl)c4O3)CC2)c1 [Example 1.2, 8-chloro-N-(4-(methylcarbamoyl)pyridin-2-yl)spiro[chroman-2,4′-piperidine]-1′-carboxamide hydrochloride]
4 | 56 | 215 °C (dec.) | CNC(=O)c1ccnc(NC(=O)N2CCC3(CC2)CC(=O)c2cccc(Cl)c2O3)c1.Cl [Example 1.3, 8-chloro-N-(4-(methylcarbamoyl)pyridin-2-yl)-4-oxospiro[chroman-2,4′-piperidine]-1′-carboxamide hydrochloride]
5 | – | 175 to 176 °C | CNC(=O)c1ccnc(NC(=O)N2CCC3(CCc4cc(F)ccc4O3)CC2)c1 [Example 1.4, 6-fluoro-N-(4-(methylcarbamoyl)pyridin-2-yl)spiro[chroman-2,4′-piperidine]-1′-carboxamide]
6 | – | 126 to 128 °C | CNC(=O)c1cccc(NC(=O)N2CCC3(CCc4ccc(F)cc4O3)CC2)n1 [Example 1.5, 7-fluoro-N-(6-(methylcarbamoyl)pyridin-2-yl)spiro[chroman-2,4′-piperidine]-it-carboxamide]
7 | – | 231 to 233 °C | CNC(=O)c1cncc(NC(=O)N2CCC3(CCc4ccc(F)cc4O3)CC2)c1 [Example 1.6, 7-fluoro-N-(5-(methylcarbamoyl)pyridin-3-yl)spiro[chroman-2,4′-piperidine]-1′-carboxamide]
8 | – | 229 to 231 °C | CNC(=O)c1ccnc(NC(=O)N2CCC3(CC2)Cc2ccccc2C3)c1 [Example 1.7, N-(4-(methylcarbamoyl)pyridin-2-yl)-1,3-dihydrospiro[indene-2,4′-piperidine]-1′-carboxamide]
9 | 40 | – | Cn1cc(CNC(=O)c2ccnc(NC(=O)N3CCC4(CCc5cc(F)ccc5O4)CC3)c2)cn1 [Example 2.1, 6-fluoro-N-(4-{[(1-methyl-1H-pyrazol-4-yl)methyl]carbamoyl}pyridin-2-yl)-3,4-dihydro-1′H-spiro[chromene-2,4′-piperidine]-1′-carboxamide hydrochloride]
10 | – | 265 to 267 °C | NC(=O)c1ccnc(NC(=O)N2CCC3(CCc4cc(F)ccc4O3)CC2)c1 [Example 3, N-(4-carbamoylpyridin-2-yl)-6-fluorospiro[chroman-2,4′-piperidine]-1′-carboxamide]
11 | 48 | 165 to 167 °C | Cc1nc(NC(=O)N2CCC3(CCc4ccc(F)cc4O3)CC2)sc1C(=O)NCc1ccccn1 [Example 4, 7-fluoro-N-(4-methyl-5-(pyridin-2-ylmethylcarbamoyl)thiazol-2-yl)spiro[chroman-2,4′-piperidine]-1′-carboxamide]
